Read-outs that look alike come from different tables or passages of the source.
How the values were obtained:
[1] = test system: PGL3 5′UTR; test: Secondary (counterscreen) luciferase assay in H4-C cells, IRE stem-loop removed; type: cell-based, human; settings: versus SNCA 5′UTR
[2] = test system: α-Synuclein; test: Decrease of α-syn in iPSC derived DA neurons; type: cell-based, human; design: Decrease syn(%) DA neurons: dose or concentration left out as unconfirmed
[3] = test system: alpha-synuclein 5′-UTR IRE (SNCA 5′UTR); test: Primary screen/retest: ASYN 5′-UTR IRE-driven luciferase expression in H4 cells; type: cell-based, human; settings: Homo sapiens, 48 h
[4] = test system: alpha-synuclein; test: ELISA secondary screen for alpha-synuclein in SH-SY5Y cells; type: cell-based, human; design: Decrease syn(%) SHSY5Y cells: unit of the concentration uncertain
Procedure: FIG. 2 illustrates the results of ELISA experiments with compound 10 in SH-SY5Y cells. […]
FIG. 18 illustrates alpha Synuclein ELISA (Invitrogen) measurements from SHSY5 undifferentiated neurons treated with the indicated doses (triplicate wells) of compounds 2, 13, 11, 14, 15, and 16) for 48 h.
A human ASYN ELISA kit was utilized for all ELISA experiments (Invitrogen alpha-synuclein ELISA kit KHB0061) and the kit protocol was followed.
1) Plate SH-SY5Y […] cells (Corning, 3570) at 10,000 cells/well in 50 μL phenol red free media (phenol red-free DMEM with 4.5 g/L D-glucose [Lonza, 12-917F] supplemented with 10% FBS [Lonza, 14-503E], 200 μM L-glutamine [Lonza, 17-605E], 100 μM penstrep [Lonza, 17-602E] and 200 μg/mL geneticin [Invitrogen, 10131-027]).
2) Lid plates, then incubate cells for 24 hours at 37° C., 5% CO2, 95% humidity in a tissue culture incubator.
3) Pin 100 nL of each compound into the assay plates spanning a final concentration range from 100-0.006 μM.
4) Incubate plates for 48 h at 37° C., 5% CO2, 95% humidity. Following incubation, add 5 μL of Alamar blue solution per well and allow to incubate for 1 h at 37° C., 5% CO2, 95% humidity.
5) Read Alamar blue fluorescence using a Thermo Varioskan (570 nm excitation, 585 nm emission). Remove cell media and add 30 μL cell lysis solution with protease inhibitor (G Biosciences, 786-331; 10 μL/mL).
6) Place plates on a plate shaker for 1 h, before removing 20 μL lysate. Transfer cell lysates to 500 μL Eppendorf tubes and centrifuge (Eppendorf Centrifuge 5417C) for 10 min at 13,000 rpm.
7) Add 12 μL of the cell supernatant to 48 μL of standard diluent buffer (1:5). Add these samples to ELISA plate wells. Prepare ASYN standard curve wells as described in the kit manual.
8) Add 50 μL of anti-α-Synuclein (Detection Antibody) solution to each well, tapping the plate to mix. Cover the plate with a tape seal and incubate for 3 h at RT.
9) Wash wells four times with wash buffer using a multichannel pipette and add 100 μL of anti-rabbit IgG-HRP antibody solution to each well. Cover the plate and incubate for 30 min at RT. Wash wells four times with wash buffer and add 100 μL of Stabilized Chromogen to each well. Seal the plate and incubate in the dark at RT for 30 min.
10) Finally, add 100 μL of Stop Solution to each well, tapping the plate to mix, and read absorbance at 450 nm using an Envision plate reader (Perkin Elmer).

[5] = test system: α-Syn; test: Decrease of α-syn in Triple SNCA cortical neurons; settings: Table 2; concentration not given
[6] = test system: SNCA IRE; test: Spinach fluorescent assay, SNCA IRE fluorescence sensor R7
[7] = test system: α-Synuclein; test: Western blots of α-syn in iPSC derived DA neuron lysates; type: cell-based, human; settings: 72 h
[8] = test system: α-Syn in tyrosine hydroxylase positive (TH+) neurons; test: Immunocytochemical quantitation of α-Syn in TH+ SNCA+ neurons; type: cell-based; settings: low dose; decreased from 30 %
From the text: FIG. 14 illustrates that immunocytochemical quantitation of effect of Compound 2 on α-Syn expression in tyrosine hydroxylase positive (TH+) α-synuclein positive (SNCA+) neurons. Panel A: antibody stains for TH and α-Syn. TH positive cells were counted. TH positive and SNCA positive cells were counted. The quantification was done by collecting 9 image fields/well with 3 wells/condition Panel B. The images were fed into Cell Profiler (Broad software).

[9] = test system: PrP-5′UTR (prion protein IRE); type: cell-based, human; settings: versus SNCA 5′UTR

SMILES: COc1ccc(N(CC(=O)Nc2cc(Cl)ccc2OC)S(=O)(=O)c2c(C)noc2C)cc1 [Compound 2, N-(5-chloro-2-methoxyphenyl)-2-((N-(4-methoxyphenyl)-3,5-dimethylisoxazole)-4-sulfonamido)acetamide]
- Selectivity PGL3 5′UTR ([1]; Table 2): 21-fold
- Selectivity PGL3 5′UTR ([1]; Table 3): 21-fold
- Decrease αsyn(%) DA neurons ([2]; Table 2, @ 1 μM): 60 @ 1 μM %
- Decrease syn(%) DA neurons ([2]; Table 3): 60 @ 1M %
- IC50 ([3]; read-out: IC50/M (SNCA 5′UTR)): 5.8 µM
- IC50 ([3]; read-out: IC50/μM (SNCA 5′UTR)): 5.8 µM
- Decrease αsyn(%) SHSY5Y cells ([4]; Table 2, @ 0.1 μM): 25-50 @ 0.1%
- Decrease syn(%) SHSY5Y cells ([4]; Table 3, @ 0.1 µM): 25-50 @ 0.1M %
- Decrease αsyn(%) X3 SNCA neurons [5]: 50%
- binding to SNCA IRE (fluorescence of sensor R7) [6]: significant increases in binding
- inhibition of α-Synuclein protein expression versus β-Syn, γ-Syn, Ferritin, APP and Prion proteins ([7]; 1 μM, normalized to β-Actin): selectively inhibit
- α-syn levels (Western blot) ([7]; 10 μM and 1 μM compound, β-actin standardized, N=3): reduced
- number of TH/SNCA positive cells [8]: 18%
- Selectivity PrP-5′UTR ([9]; Table 2): 18-fold
- Selectivity PrP-5′UTR ([9]; Table 3): 18-fold

Reference: patent US20250170124A1, “METHODS OF DIAGNOSING AND TREATING NEURODEGENERATIVE DISEASES” (The General Hospital Corporation, priority 2022, published 2025)
